Where two headings read alike, the source gives them in different places.
Legend:
[1] = biological target: T1, NS3-NS4 protease (full-length NS3/NS4A-2) (Hepatitis C virus genotype 1a, UniProt P27958); experiment: NS3-NS4 protease assay / NS3 inhibition assay (RETS1 substrate, fluorescence kinetic read); format: biochemical; conditions: read-out: NS3-NS4 IC50
T1 construct: Recombinant E. coli or Baculovirus full-length NS3 was diluted to 3.33 μM with assay buffer; made in house; host or cells: E. coli or baculovirus (insect cells)
T1 sequence (P27958 1027-1657): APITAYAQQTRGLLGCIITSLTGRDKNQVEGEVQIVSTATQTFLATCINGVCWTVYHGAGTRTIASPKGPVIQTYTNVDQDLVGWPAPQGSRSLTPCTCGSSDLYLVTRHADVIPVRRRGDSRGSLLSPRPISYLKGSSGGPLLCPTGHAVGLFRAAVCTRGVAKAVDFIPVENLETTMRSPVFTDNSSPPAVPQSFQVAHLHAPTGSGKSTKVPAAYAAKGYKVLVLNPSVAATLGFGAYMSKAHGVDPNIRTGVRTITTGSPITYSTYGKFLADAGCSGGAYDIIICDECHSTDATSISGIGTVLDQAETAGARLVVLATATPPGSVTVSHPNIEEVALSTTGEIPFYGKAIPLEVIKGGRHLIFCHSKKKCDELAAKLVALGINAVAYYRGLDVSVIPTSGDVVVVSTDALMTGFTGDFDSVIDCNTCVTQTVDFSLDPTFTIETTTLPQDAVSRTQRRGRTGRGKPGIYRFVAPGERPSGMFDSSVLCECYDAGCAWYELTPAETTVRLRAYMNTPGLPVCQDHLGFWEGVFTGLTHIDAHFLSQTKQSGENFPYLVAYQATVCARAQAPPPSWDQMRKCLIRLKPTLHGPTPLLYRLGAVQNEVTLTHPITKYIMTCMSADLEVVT

[2] = system: HCV sub-genomic replicon GS4.3 (HuH-7 hepatoma cells); experiment: Quantitation by ELISA of neomycin phosphotransferase II (NPTII) in the HCV sub-genomic replicon, GS4.3; format: cell-based; conditions: GS4.3 cells, 72 h, read-out: Replicon EC50
Excerpt: Quantitation by ELISA of the Selectable Marker Protein, Neomycin Phosphotransferase II (NPTII) in the HCV Sub-Genomic Replicon, GS4.3
The HCV sub-genomic replicon (1377/NS3-3′, accession No. AJ242652), stably maintained in HuH-7 hepatoma cells, was created by Lohmann et al. Science 285: 110-113 (1999). The replicon-containing cell culture, designated GS4.3, was obtained from Dr. Christoph Seeger of the Institute for Cancer Research, Fox Chase Cancer Center, Philadelphia, Pa.
GS4.3 cells were maintained at 37° C., 5% CO2, in DMEM (Gibco 11965-092) supplemented with L-glutamine 200 mM (100×) (Gibco25030-081), non-essential amino acids (NEAA)(Biowhittaker 13-114E), heat-inactivated (HI) Fetal Bovine Serum(FBS)(Hyclone SH3007.03) and […] geneticin (G418)(Gibco 10131-035). Cells were sub-divided 1:3 or 4 every 2-3 days.
24 h prior to the assay, GS4.3 cells were collected, counted, and plated in 96-well plates (Costar 3585) at 7500 cells/well in 100 μl standard maintenance medium (above) and incubated in the conditions above. To initiate the assay, culture medium was removed, cells were washed once with PBS (Gibco 10010-023) and 90 μl Assay Medium (DMEM, L-glutamine, NEAA, 10% HI FBS, no G418) was added. Inhibitors were made as a 10× stock in Assay Medium, (3-fold dilutions from 10 μM to […] final concentration, final DMSO concentration 1%), 10 μl were added to duplicate wells, plates were rocked to mix, and incubated as above for 72 h.
An NPTII Elisa kit was obtained from AGDIA, Inc. (Compound direct ELISA test system for Neomycin Phosphotransferase II, PSP 73000/4800). Manufacturer's instructions were followed, with some modifications. 10×PEB-1 lysis buffer was made up to include 500 μM PMSF (Sigma P7626, 50 mM stock in isopropanol). After 72 h incubation, cells were washed once with PBS and 150 μlPEB-1 with PMSF was added per well. Plates were agitated vigorously for 15 minutes, room temperature, then frozen at −70° C. Plates were thawed, lysates were mixed thoroughly, and 100 μl were applied to an NPTII Elisa plate. A standard curve was made. Lysate from DMSO-treated control cells was pooled, serially diluted with PEB-1 with PMSF, and applied to duplicate wells of the ELISA plate, in a range of initial lysate amount of 150 ul-2.5 ul. In addition, 100 μl buffer alone was applied in duplicate as a blank. Plates were sealed and gently agitated at room temperature for 2 h. Following capture incubation, the plates were washed 5×300 μlwith PBS-T (0.5% Tween-20, PBS-T was supplied in the ELISA kit). For detection, a 1× dilution of enzyme conjugate diluent MRS-2 (5×) was made in PBS-T, into which 1:100 dilutions of enzyme conjugates A and B were added, as per instructions. Plates were resealed, and incubated with agitation, covered, room temperature, for 2 h. The washing was then repeated and 100 μlof room temperature TMB substrate was added. After approximately 30 minutes incubation (room temperature, agitation, covered), the reaction was stopped with 50 μl 3M sulfuric acid. Plates were read at 450 nm on a Molecular Devices Versamax plate reader.
Inhibitor effect was expressed as a percentage of DMSO-treated control signal, and inhibition curves were calculated using a 4-parameter equation: y=A+4B-A)/(1+((C/x)^13))), where C is half-maximal activity or EC50.

Question: With “(2R,6S,13aS,14aR,16aS,Z)-6-(tert-butoxycarbonylamino)-9,9-difluoro-2-(4-fluoroisoindoline-2-carbonyloxy)-5,16-dioxo-1,2,3,5,6,7,8,9,10,11,13 a,14,14a,15,16,16a-hexadecahydrocyclopropa(e)prrolo[1,2-a][1,4]diazacyclopentadecine-14a-carboxylic acid [Compound 1006]” as the compound, how does the IC50 [1] read?
Answer: The IC50 was less than 100 nM.

Question: And the EC50 [2]?
Answer: The EC50 was less than 10000 nM.

Question: For `O=C1N[C@]2(C(=O)NS(=O)(=O)C3CC3)C[C@H]2/C=C\CCCCC[C@H](NCc2ccc(CO)o2)C(=O)N2C[C@H](OC(=O)N3Cc4cccc(F)c4C3)C[C@@H]12` [Compound 913], which IC50 [1] is on record?
Answer: Its IC50 is less than 100 nM.

Question: And the EC50 ([2]; Hepatitis C virus, Huh-7)?
Answer: The EC50 was less than 1000 nM.

Question: For `CC(C)(C)OC(=O)N[C@H]1CCN(S(=O)(=O)c2ccccc2[N+](=O)[O-])CC/C=C\[C@@H]2C[C@@]2(C(=O)O)NC(=O)[C@@H]2C[C@@H](OC(=O)N3Cc4cccc(F)c4C3)CN2C1=O` [Compound 1029], which IC50 [1] is on record?
Answer: The IC50 was less than 100 nM.

Question: What about the EC50 ([2]; Hepatitis C virus, Huh-7) of the same compound?
Answer: Its EC50 is less than 10000 nM.

Reference: patent US8299021B2, “Macrocyclic inhibitors of hepatitis C virus replication” (InterMune, Inc., priority 2005, dated 2012)
